Reference: patent US20060287247A1, “Halogen-substituted thienyl compounds” (priority 2001, published 2006)

Assays:
5′-AAAAAGCAAAAA-3′ = format: binding; settings: DNA sequence 5′-AAAAAGCAAAAA-3′; pH 7.0, 22° C.
Description: (§1) A number of compounds according to this invention were screened for their ability to bind to three DNA sites, using DNase I footprinting. Generally, the procedure described in Dervan, WO 98/50582 (1998), was followed.
(§2) A plasmid was prepared by hybridizing two sets of 5′-phosphorylated complementary oligonucleotides, one set being
(§3) The target sites and their complements are identified in bold underline.
(§4) The resulting duplexes were ligated to the large pUC19 AvaI/SalI restriction fragment. The 3′-P32 end-labeled EcoRI/PvuII fragment was prepared by digesting the plasmid with EcoRI and PvuII with simultaneous fill-in using Sequenase v. 2.0, [alpha-P32]-deoxyadenosine-5′-triphosphate, and [alpha-P32]-thymidine-5′-triphosphate, and isolating the cloned fragment by nondenaturing gel electrophoresis. Standard methods were used for all DNA manipulations, including A and G sequencing. See, e.g., Maxam et al., Methods Enzymol., 1980, 65, 499-560; Iverson et al., Methods Enzymol., 1987, 15, 7823-7830; and Sambrook et al., 1989, Molecular Cloning, 2nd ed., Cold Spring Harbor Laboratory Press: Cold Spring Harbor, N.Y.
(§5) Quantitative DNase I footprint titration experiments were carried out as described previously (Dervan, WO 98/50582, 1998, “Dervan '582”) with the following changes. All reactions were carried out in a total volume of 400 μL, with polyamide stock solution or water added to 15,000 cpm radiolabeled restriction fragment affording final solution conditions of 10 mM Tris.HCl, 10 mM KCl, 10 mM MgCl2, 5 mM CaCl2, pH 7.0 and 0.01 nM, 0.1 nM, 1.0 nM, 10.0 nM polyamide or no polyamide for reference lanes. The polyamides were allowed to equilibrate at 22° C. for 16 hr. Footprinting reactions were initiated with addition of 10 μL of a DNase I stock solution (at the appropriate concentration to give ˜50% intact DNA) containing 1 mM DTT and allowed to proceed for 7 min at 22° C. The reactions were stopped, ethanol precipitated, resuspended in loading buffer, heat denatured, and placed on ice as described in Dervan '582. The reaction products were separated on a precast 8% polyacrylamide denaturing sequencing Castaway gel with 32 preformed wells from Stratagene in 1× TBE at 2000 V. Gels were dried according to the manufacturer's instructions and exposed to a storage phosphor screen (Molecular Dynamics). Quantitation and data analysis were carried out as described in Dervan '582.

5′-AAAAAGACAAAAA-3′ = format: binding; settings: DNA sequence 5′-AAAAAGACAAAAA-3′; pH 7.0, 22° C.
Description: as §1, §2, §3, §4, §5

5′-AAAAAGTACAAAAA-3′ = format: binding; settings: DNA sequence 5′-AAAAAGTACAAAAA-3′; pH 7.0, 22° C.
Description: as §1, §2, §3, §4, §5

S. pneumoniae ATCC 49619 = assay: NCCLS broth microdilution MIC; format: cell-based, Streptococcus pneumoniae; settings: F = S. pneumoniae ATCC 49619
B. cereus ATCC 11778 = assay: NCCLS broth microdilution MIC; format: cell-based, Bacillus cereus; settings: C = B. cereus ATCC 11778
E. faecalis ATCC 29212 = assay: NCCLS broth microdilution MIC; format: cell-based, Enterococcus faecalis; settings: B = E. faecalis ATCC 29212
E. coli ATCC 25922 = assay: NCCLS broth microdilution MIC; format: cell-based; settings: D = E. coli ATCC 25922
S. aureus ATCC 29213 = assay: NCCLS broth microdilution MIC; format: cell-based, Staphylococcus aureus; settings: A = S. aureus ATCC 29213
C. albicans ATCC 38247 = assay: NCCLS broth microdilution MIC (antifungal); format: cell-based; settings: E = C. albicans ATCC 38247

| Compound | Equilibrium Association Constant (Ka) (5′-AAAAAGCAAAAA-3′) | Equilibrium Association Constant (Ka) (5′-AAAAAGACAAAAA-3′) | Equilibrium Association Constant (Ka) (5′-AAAAAGTACAAAAA-3′) | Minimum Inhibitory Concentration (MIC) (S. pneumoniae ATCC 49619) | Minimum Inhibitory Concentration (MIC) (B. cereus ATCC 11778) | Minimum Inhibitory Concentration (MIC) (E. faecalis ATCC 29212) | Minimum Inhibitory Concentration (MIC) (E. coli ATCC 25922) | Minimum Inhibitory Concentration (MIC) (S. aureus ATCC 29213) | Minimum Inhibitory Concentration (MIC) (C. albicans ATCC 38247) |
| --- | --- | --- | --- | --- | --- | --- | --- | --- | --- |
| Cn1cc(NC(=O)c2cc(NC(=O)CCNC(=O)c3cc(NC(=O)c4cc(NC(=O)c5ccc(Br)s5)cn4C)cn3C)cn2C)cc1C(=O)NCCC(=O)NCCCCN [Id-17] | ≧1 × 10^11 M^−1 | ≧1 × 10^11 M^−1 | ≧1 × 10^11 M^−1 | +++ (+++ = MIC ≦4) | +++ (+++ = MIC ≦4) | ++ (++ = MIC between 4 and 12) | >32 µg/mL | + (+ = MIC from 12 to 32, inclusive) | >32 µg/mL |
| CN(C)CCCNC(=O)CCNC(=O)c1cc(NC(=O)c2cc(NC(=O)CCNC(=O)c3cc(NC(=O)c4cc(NC(=O)c5ccc(Br)s5)cn4C)cn3C)cn2C)cn1C [Id-18] | ≧1 × 10^11 M^−1 | ≧1 × 10^11 M^−1 | ≧1 × 10^11 M^−1 | +++ (+++ = MIC ≦4) | + (+ = MIC from 12 to 32, inclusive) | ++ (++ = MIC between 4 and 12) | >32 µg/mL | >32 µg/mL | >32 µg/mL |
| CC(C)N(CCNC(=O)CCNC(=O)c1cc(NC(=O)c2cc(NC(=O)CCNC(=O)c3cc(NC(=O)c4cc(NC(=O)c5ccc(Br)s5)cn4C)cn3C)cn2C)cn1C)C(C)C [Id-19] | 5e+09 M⁻¹ | 5e+09 M⁻¹ | ≧1 × 10^11 M^−1 | +++ (+++ = MIC ≦4) | +++ (+++ = MIC ≦4) | +++ (+++ = MIC ≦4) | >32 µg/mL | >32 µg/mL | >32 µg/mL |
| Cn1cc(NC(=O)c2cc(NC(=O)CCNC(=O)c3cc(NC(=O)c4cc(NC(=O)c5ccc(Br)s5)cn4C)cn3C)cn2C)cc1C(=O)NCCC(=O)NCCCCCCN [Id-21] | 5e+10 M⁻¹ | 1e+10 M⁻¹ | ≧1 × 10^11 M^−1 | +++ (+++ = MIC ≦4) | +++ (+++ = MIC ≦4) | +++ (+++ = MIC ≦4) | >32 µg/mL | >32 µg/mL | >32 µg/mL |
| CCN(CC)CCNC(=O)CCNC(=O)c1cc(NC(=O)c2cc(NC(=O)CCNC(=O)c3cc(NC(=O)c4cc(NC(=O)c5ccc(Br)s5)cn4C)cn3C)cn2C)cn1C [Id-22] | 2e+08 M⁻¹ | 2e+08 M⁻¹ | ≧1 × 10^11 M^−1 | +++ (+++ = MIC ≦4) | +++ (+++ = MIC ≦4) | +++ (+++ = MIC ≦4) | >32 µg/mL | >32 µg/mL | >32 µg/mL |
